Patent publication US5912414A, “Nucleic acid fragments, chimeric genes and methods for increasing the methionine content of the seeds of plants” (priority 1996, dated 1999)

How the values were obtained:
[1] = test system: E. coli strain Gif106M1 transformed with pBT436; experiment: Growth inhibition of Gif106M1 transformed with pBT436 on supplemented M9 media; type: cell-based; conditions: M9 media with arginine, isoleucine, ampicillin; reversed by threonine plus methionine
Excerpt: To establish that the cloned lysC gene was functional, pBT436 was transformed into E. coli strain Gif106M1 (E. coli Genetic Stock Center strain CGSC-5074) which has mutations in each of the three E. coli AK genes [Theze et al. (1974) J. Bacteriol. 117:133-143]. This strain lacks all AK activity and therefore requires diaminopimelate (a precursor to lysine which is also essential for cell wall biosynthesis), threonine and methionine.
Addition of lysine (or diaminopimelate which is readily converted to lysine in vivo) at a concentration of approximately 0.2 mM to the growth medium inhibits the growth of Gif106M1 transformed with pBT436.M9 media [see Sambrook et al. (1989) Molecular Cloning: a Laboratory Manual, Cold Spring Harbor Laboratory Press] supplemented with the arginine and isoleucine, required for Gif106M1 growth, and ampicillin, to maintain selection for the pBT436 plasmid, was used. This inhibition is reversed by addition of threonine plus methionine to the growth media. […] This property of pBT436-transformed Gif106M1 was used to select for mutations in lysC that encoded lysine-insensitive AKIII.

[2] = target: T1, wild type AKIII (Escherichia coli, UniProt P08660); experiment: Inhibition of wild type AKIII aspartokinase activity by lysine; type: biochemical, E. coli
T1 construct: made in house; host or cells: E. coli Gif106M1 transformed with pBT436 (the plasmid of the cloned wild type lysC gene)
Protocol: Single colonies of Gif106M1 transformed with pBT436 were picked and resuspended in 200 μL of a mixture of 100 μL 1% lysine plus 100 μL of M9 media. The entire cell suspension containing 10^7 -10^8 cells was spread on a petri dish containing M9 media supplemented with the arginine, isoleucine, and ampicillin. Sixteen petri dishes were thus prepared. From 1 to 20 colonies appeared on 11 of the 16 petri dishes. One or two (if available) colonies were picked and retested for lysine resistance and from this nine lysine-resistant clones were obtained. Plasmid DNA was prepared from eight of these and re-transformed into Gif106M1 to determine whether the lysine resistance determinant was plasmid-borne. Six of the eight plasmid DNAs yielded lysine-resistant colonies. Three of these six carried lysC genes encoding AKIII that was uninhibited by 15 mM lysine, whereas wild type AKIII is 50% inhibited by 0.3-0.4 mM lysine and >90% inhibited by 1 mM lysine (see Example 2 for details).
(§1) Assay mix (for 12×1.0 mL or 48×0.25 mL assays):
(§2) Each 1.5 ml eppendorf assay tube contains: […]
(§3) Spin for 2 min in eppendorf centrifuge tube.

[3] = test system: lysine-insensitive AKIII (mutant lysC genes M2, M3, M4); experiment: Inhibition by lysine of AKIII encoded by mutant lysC genes (lysine-resistant clones); type: biochemical, E. coli; conditions: 15 mM lysine; three of six lysine-resistant plasmids
[4] = target: T2, AKII-HDHII (AK activity) (Escherichia coli, UniProt P00562); experiment: Inhibition of AK activity of clone 5 extract (metL, AKII-HDHII) by pathway end-products; type: biochemical, E. coli; conditions: 30 mM end-product; extract from clone 5
T2 construct: made in house; host or cells: E. coli BL21(DE3), pBT430-derived expression vector; sonicated cell extract of clone 5 (pBT718)
Protocol: (§4) Cultures were grown in TB medium containing ampicillin (100 mg/L) at 37° C. overnight. The cells were collected by centrifugation and resuspended in 1/25th the original culture volume in 50 mM NaCl; 50 mM Tris-Cl, pH 7.5; 1 mM EDTA, and frozen at -20° C., thawed at 37° C. and sonicated, in an ice-water bath, to lyse the cells. The lysate was centrifuged at 4° C. for 5 min at 12,000 rpm. The supernatant was removed and the pellet was resuspended in the above buffer.
as §1, §2, §3
(§5) Two extracts also had high levels of AK enzyme activity. These two extracts were then tested for inhibition of AK or HDH activity by the pathway end-products, lys, thr and met.

[5] = target: T3, AKII-HDHII (HDH activity) (Escherichia coli, UniProt P00562); experiment: Inhibition of HDH activity of clone 5 extract (metL, AKII-HDHII) by pathway end-products; type: biochemical, E. coli; conditions: 30 mM end-product; extract from clone 5
T3 construct: made in house; host or cells: E. coli BL21(DE3), pBT430-derived expression vector; sonicated cell extract of clone 5 (pBT718)
Protocol: as §4
The supernatant fractions were assayed for HDH enzyme activities to identify clones expressing functional proteins. HDH activity was assayed as shown below: […]
Make Mixture of above reagents with amounts multiplied by number of assays. Use 0.9 mls of mix for 1 ml assay; 180 μl of mix for 0.2 ml assay in microtiter dish
to 1/2 the assay mix; remaining 1/2 lacks ASA to serve as blank
Add enzyme extract last to start reaction. Incubate at ~30° C.; monitor NADPH oxidation at […]. 1 unit oxidizes 1 μmol NADPH/min at 30° C. in the 1 ml reaction.
as §5

T2 sequence (P00562 other isoform, or with tags, fused parts or gaps): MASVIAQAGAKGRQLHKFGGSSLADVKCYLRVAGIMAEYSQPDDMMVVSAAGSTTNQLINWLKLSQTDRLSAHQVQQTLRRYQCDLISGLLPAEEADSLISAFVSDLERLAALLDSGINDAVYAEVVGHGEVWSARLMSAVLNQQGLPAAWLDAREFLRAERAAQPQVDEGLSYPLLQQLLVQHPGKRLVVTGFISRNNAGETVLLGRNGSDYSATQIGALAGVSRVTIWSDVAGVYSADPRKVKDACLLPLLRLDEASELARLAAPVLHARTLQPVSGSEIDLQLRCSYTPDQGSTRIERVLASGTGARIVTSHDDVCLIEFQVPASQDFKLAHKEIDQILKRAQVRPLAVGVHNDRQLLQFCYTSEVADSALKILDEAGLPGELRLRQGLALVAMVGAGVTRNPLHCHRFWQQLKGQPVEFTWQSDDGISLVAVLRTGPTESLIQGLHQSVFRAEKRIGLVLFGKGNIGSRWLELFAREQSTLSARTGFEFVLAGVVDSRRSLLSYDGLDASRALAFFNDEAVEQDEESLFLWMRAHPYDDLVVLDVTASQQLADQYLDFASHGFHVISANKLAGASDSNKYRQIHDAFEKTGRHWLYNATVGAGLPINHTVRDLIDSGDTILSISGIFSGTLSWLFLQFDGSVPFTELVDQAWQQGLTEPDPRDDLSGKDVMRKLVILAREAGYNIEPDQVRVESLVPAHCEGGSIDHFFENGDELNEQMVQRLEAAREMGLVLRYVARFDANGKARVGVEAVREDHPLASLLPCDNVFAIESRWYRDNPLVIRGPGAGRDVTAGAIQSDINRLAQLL
T3 sequence (P00562 other isoform, or with tags, fused parts or gaps): as above
T1 sequence (P08660 2-449): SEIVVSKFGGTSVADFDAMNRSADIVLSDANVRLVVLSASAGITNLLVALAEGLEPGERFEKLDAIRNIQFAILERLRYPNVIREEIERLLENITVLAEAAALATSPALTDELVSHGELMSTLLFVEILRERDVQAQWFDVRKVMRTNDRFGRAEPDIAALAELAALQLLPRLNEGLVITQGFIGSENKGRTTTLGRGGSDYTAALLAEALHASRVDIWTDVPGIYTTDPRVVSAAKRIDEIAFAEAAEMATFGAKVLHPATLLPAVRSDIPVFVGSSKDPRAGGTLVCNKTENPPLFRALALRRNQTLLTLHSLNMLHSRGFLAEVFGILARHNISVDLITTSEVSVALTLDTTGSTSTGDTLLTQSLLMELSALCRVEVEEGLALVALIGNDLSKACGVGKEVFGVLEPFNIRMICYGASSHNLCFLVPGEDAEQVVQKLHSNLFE

SMILES	concentration in the growth medium that inhibits growth [1]	inhibition at 1000 µM ([2]; read-out: inhibition of wild type AKIII) [%]	IC50 ([2]; wild type AKIII from cloned lysC (pBT436), read-out: lysine concentration giving 50% inhibition of wild type AKIII) [µM]	inhibition of AKIII encoded by mutant lysC genes [3]	inhibition of AK activity [4]	inhibition of HDH activity [5]
NC(CCCC(N)C(=O)O)C(=O)O (centres unmarked) [diaminopimelate]	approximately 0.2 mM					
NCCCC[C@H](N)C(=O)O [lysine]	approximately 0.2 mM	> 90	300 to 400	uninhibited	Neither the AK nor the HDH activity of the extract from clone 5 was inhibited	Neither the AK nor the HDH activity of the extract from clone 5 was inhibited
CSCC[C@H](N)C(=O)O [met, methionine]					Neither the AK nor the HDH activity of the extract from clone 5 was inhibited	Neither the AK nor the HDH activity of the extract from clone 5 was inhibited
C[C@@H](O)[C@H](N)C(=O)O [thr, threonine]					Neither the AK nor the HDH activity of the extract from clone 5 was inhibited	Neither the AK nor the HDH activity of the extract from clone 5 was inhibited
